From US6645479B1, “Targeted delivery of active/bioactive and perfuming compositions” (International Flavors & Fragrances Inc., priority 1997, dated 2003)

Experiment: Vapor pressure of fragrance components
Details: not given

Question: With CC1=CC(C)C(C=O)CC1 (stereo not shown) as the compound, how does the “Vapor Pressure mm/Hg at 25° C.” value read?
Answer: The value was 0.3 mm/Hg.

Question: With CC(=O)O[C@@H]1C[C@H]2CC[C@]1(C)C2(C)C (racemic) [isobornyl acetate] as the compound, how does the “Vapor Pressure mm/Hg at 25° C.” value read?
Answer: The value was 0.09 mm/Hg.

Question: With CC(=O)C1(C)CC2=C(CCCC2(C)C)CC1C (stereo not shown) [ISO E SUPER ®] as the compound, how does the “Vapor Pressure mm/Hg at 25° C.” value read?
Answer: The value was 0.002 mm/Hg.

Question: For CC(C=O)Cc1ccc(C(C)(C)C)cc1 (stereo not shown) [LILIAL ®], which “Vapor Pressure mm/Hg at 25° C.” value is on record?
Answer: The value was 0.003 mm/Hg.

Question: Which “Vapor Pressure mm/Hg at 25° C.” value does the source give for CC(=O)c1cc2c(cc1C)C(C)(C)C(C)CC2(C)C (stereo not shown) [TONALID ®] here?
Answer: The value was 0.0001 mm/Hg.

Question: For CC(=O)OC1CCC(C(C)(C)C)CC1 (stereo not shown) [VERTENEX ® HC], which “Vapor Pressure mm/Hg at 25° C.” value is on record?
Answer: Its value is 0.03 mm/Hg.

Question: Which “Vapor Pressure mm/Hg at 25° C.” value does the source give for C=CCOC(=O)COCCC(C)C [allyl amyl glycolate] here?
Answer: The value was 0.07 mm/Hg.

Question: For CC(=O)OCc1ccccc1 [benzyl acetate], which “Vapor Pressure mm/Hg at 25° C.” value is on record?
Answer: The value was 0.1 mm/Hg.

Question: With CC12CCC(CC1=O)C2(C)C (stereo not shown) [camphor] as the compound, how does the “Vapor Pressure mm/Hg at 25° C.” value read?
Answer: Its value is 0.1 mm/Hg.

Question: With CC/C=C\CCOC(C)=O [cis-3-hexenyl acetate] as the compound, how does the “Vapor Pressure mm/Hg at 25° C.” value read?
Answer: Its value is 2.0 mm/Hg.

Question: Which “Vapor Pressure mm/Hg at 25° C.” value does the source give for CC/C=C\CCOC(=O)c1ccccc1O [cis-3-hexenyl salicylate] here?
Answer: The value was 0.0008 mm/Hg.

Question: Which “Vapor Pressure mm/Hg at 25° C.” value does the source give for CC(C)=CCCC(C)CCO (stereo not shown) [citronellol] here?
Answer: Its value is 0.009 mm/Hg.

Question: For CC(C=O)Cc1ccc(C(C)C)cc1 (stereo not shown) [cyclamal], which “Vapor Pressure mm/Hg at 25° C.” value is on record?
Answer: Its value is 0.004 mm/Hg.

Question: For C=CC(C)CCCC(C)(C)O (stereo not shown) [dihydromyrcenol], which “Vapor Pressure mm/Hg at 25° C.” value is on record?
Answer: Its value is 0.09 mm/Hg.

Question: With CCCCCCC(C=O)=Cc1ccccc1 [hexyl cinnamic aldehyde] as the compound, how does the “Vapor Pressure mm/Hg at 25° C.” value read?
Answer: The value was 0.0003 mm/Hg.

Question: With CC1(C)[C@H]2CC[C@]1(C)[C@H](O)C2 [l-borneol] as the compound, how does the “Vapor Pressure mm/Hg at 25° C.” value read?
Answer: Its value is 0.02 mm/Hg.

Question: For C=CC(C)(O)CCC=C(C)C (stereo not shown) [linalool], which “Vapor Pressure mm/Hg at 25° C.” value is on record?
Answer: The value was 0.05 mm/Hg.

Question: Which “Vapor Pressure mm/Hg at 25° C.” value does the source give for C=CC(C)(CCC=C(C)C)OC(C)=O (stereo not shown) [linalyl acetate] here?
Answer: The value was 0.07 mm/Hg.

Question: Which “Vapor Pressure mm/Hg at 25° C.” value does the source give for C=CCc1ccc(OC)cc1 [methyl chavicol] here?
Answer: The value was 0.09 mm/Hg.

Question: Which “Vapor Pressure mm/Hg at 25° C.” value does the source give for CCCCCCCCCC(C)C=O (stereo not shown) [methyl nonyl acetaldehyde] here?
Answer: Its value is 0.009 mm/Hg.

Question: Which “Vapor Pressure mm/Hg at 25° C.” value does the source give for CC(=O)OC(C)c1ccccc1 (stereo not shown) [styralyl acetate] here?
Answer: The value was 0.1 mm/Hg.

Question: With CC1=CCC(C(C)(C)O)CC1 (stereo not drawn) [α-terpineol] as the compound, how does the “Vapor Pressure mm/Hg at 25° C.” value read?
Answer: The value was 0.02 mm/Hg.

Question: With CC(=O)/C=C/C1=C(C)CCCC1(C)C [β-ionone] as the compound, how does the “Vapor Pressure mm/Hg at 25° C.” value read?
Answer: The value was 0.006 mm/Hg.

Question: With OCCc1ccccc1 [β-phenyl ethyl alcohol] as the compound, how does the “Vapor Pressure mm/Hg at 25° C.” value read?
Answer: Its value is 0.02 mm/Hg.

Question: Which “Vapor Pressure mm/Hg at 25° C.” value does the source give for peach aldehyde coeur here?
Answer: The value was 0.002 mm/Hg.

Experiment: IFF permeation test: permeation rate through wax or polymer matrix
Details: matrix: carnauba wax
Description: Referring to FIGS. 4A and 4B, fluid 46 is located in jar 44. Jar 44 has sidearm 45. The fluid 46 reaches fluid level 47. Directly in line with fluid level 47 is membrane 41. The diffusion membrane 41 is held in place with flanges 43 and jar lip 42, using bolts 401a and 401b which secures the flange in place. The sidearm 45 is closed using closure 49. The permeability apparatus is shown using reference numeral 40. The IFF permeability test is based on the use of the apparatus of FIGS. 4A and 4B. The weight of membrane 41 is taken, initially, before being placed within the flange 43 and the jar lip 42. Substance 46 for which the permeability is to be measured is placed into jar 44 to fluid level 47. The apparatus containing fluid 46 remains in place for a fixed period of time. At the end of that period of time, bolts 401a and 401b as well as 401c are loosened, the flange 43 removed and membrane 41 is removed and weighed, thereby gathering sufficient data to determine the permeability of the particular substance 46. […] The Y axis measures weight loss and is indicated by reference numeral 54.

Question: For C/C=C(\C)C(=O)OCC [ethyl tiglate], which “permeation rate through matrix material” value is on record?
Answer: Its value is 4.4 × 10^−4.

Same assay, conditions: matrix: polyamide (MACROMELT 6030)

Question: For C/C=C(\C)C(=O)OCC [ethyl tiglate], which “permeation rate through matrix material” value is on record?
Answer: The value was 4.2 × 10^−4.

Same assay, conditions: matrix: polyethylene wax, molecular weight 500

Question: Which “permeation rate through matrix material” value does the source give for C/C=C(\C)C(=O)OCC [ethyl tiglate] here?
Answer: The value was 2.0 × 10^−5.
